# Values quoted from earlier work, collected in patent publication US20230285409A1, “METHODS OF USING RHO KINASE INHIBITORS TO TREAT VASCULAR DEMENTIA” (Woolsey Pharmaceuticals, Inc., priority 2020, published 2023).
# Structures can show the parent of a compound that is named as a salt.
# Tests used:
# [1] = in vivo, 1-hydroxy metabolite; cited from earlier work
# [2] = target: p38 mitogen-activated protein kinase (Homo sapiens, UniProt Q16539); conditions: cited from earlier work
# [3] = test system: triple transgenic mouse model (APP Swedish, MAPT P301L, and PSEN1 M146V); conditions: 10 mg/kg/day intraperitoneally; cited from earlier work
# streptozotocin rats = conditions: 5 and 10 mg/kg/day intraperitoneally; cited from earlier work
# VaD patients = conditions: cited from earlier work
# [4] = test system: patients with wandering due to VaD; conditions: cited from earlier work
# triple transgenic mice = conditions: 30 mg/kg and 100 mg/kg in water, 10 or 12 months of age; cited from earlier work
# APP/PS1 transgenic mice = conditions: 5 and 10 mg/kg/day intraperitoneally; cited from earlier work
# Chain of p38 mitogen-activated protein kinase (Q16539 whole entry): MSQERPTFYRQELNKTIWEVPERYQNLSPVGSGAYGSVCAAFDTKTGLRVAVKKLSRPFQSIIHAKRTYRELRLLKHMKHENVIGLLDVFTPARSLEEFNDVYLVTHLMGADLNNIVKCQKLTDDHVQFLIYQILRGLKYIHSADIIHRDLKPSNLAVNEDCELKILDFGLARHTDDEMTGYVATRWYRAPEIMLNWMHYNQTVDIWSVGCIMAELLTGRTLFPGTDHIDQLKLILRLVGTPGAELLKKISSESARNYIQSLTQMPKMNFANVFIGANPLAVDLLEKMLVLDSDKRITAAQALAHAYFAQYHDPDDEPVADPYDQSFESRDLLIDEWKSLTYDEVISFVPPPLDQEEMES
smiles,measurement,setting,value
O=S(=O)(c1cccc2c(O)nccc12)N1CCCNCC1 [M3],half-life,[1],about 8 hours
O=c1ncn2nc(Sc3ccc(F)cc3F)ccc2c1-c1c(Cl)cccc1Cl [Neflamapimod],primary endpoint of improving episodic memory,[2]; Phase 2,failed its primary endpoint
same,tau in the cerebrospinal fluid,[2]; Phase 2,reducing tau
same,Aβ deposition,[2]; in humans,no effect on Aβ deposition
"O=S(=O)(c1cccc2cnccc12)N1CCCNCC1 [fasudil, Hexahydro-1-(5-Isoquinolinesulfonyl)-1H-1,4-Diazepine Monohydrochloride Hemihydrate]",ß-amyloid plaques in vivo,[3],reduce ß-amyloid plaques
same,latency distance and quadrant time in the Morris water maze,streptozotocin rats,improved
same,MMSE differential versus control,"VaD patients; 30 mg iv daily, control intravenous ligustrazine",7 point
same,improvement in MMSE over baseline,"VaD patients; 30 mg iv infusion daily, 2 weeks, 2 days off, 2 more weeks, mean or median unclear",9 point
same,ADL score after treatment,"VaD patients; after treatment, baseline 54, >26 functionally impaired",36
same,MMSE score after treatment,"VaD patients; after treatment, baseline mean about 17",~27
same,cognitive improvements (MMSE),"[4]; 30 mg and 60 mg per day, case studies",about 3 points
same,dose response,[4]; 30 mg and 60 mg per day,no dose response
same,spatial orientation,[4]; case studies,no improvement in spatial orientation
same,wandering symptoms,"[4]; patient with Binswanger-type cerebral infarction, within weeks of beginning treatment",wandering symptoms disappeared
same,spatial memory,triple transgenic mice,did not observe improvements in spatial memory
same,latency distance and quadrant time in the Morris water maze,APP/PS1 transgenic mice,improved
